The record followed here is ChEMBL document CHEMBL5696442, “Discovery of type II inhibitors of TGFβ-activated kinase 1 (TAK1) and mitogen-activated protein kinase kinase kinase kinase 2 (MAP4K2)” (J Med Chem, 2015).

Assay [1] concerns the target Serine/threonine-protein kinase 38-like (Homo sapiens) (UniProt Q9Y2H1). Briefly: Inhibition of NDR2 ACT labeling site in human Huh-7 cell lysate at 1 uM by KiNativ Profiling analysis relative to control. The class given is subcellular.
The target in assay [2] is Serine/threonine-protein kinase 24 (Homo sapiens) (UniProt Q9Y6E0). Briefly: Inhibition of MST3 Lys2 labeling site harbouring IHRDIKAANVLLSEHGEVK in human Huh-7 cells at 1 uM by KiNativ Profiling analysis relative to control. The class given is cell-based.
The target of assay [3] is Activated CDC42 kinase 1 (Homo sapiens) (UniProt Q07912). Description: Inhibition of ACK Lys1 labeling site in human A-375 cells at 0.5 uM by KiNativ Profiling analysis relative to control. The class given is cell-based.
Activated CDC42 kinase 1 (Homo sapiens), sequence (Q07912 whole entry, looked up): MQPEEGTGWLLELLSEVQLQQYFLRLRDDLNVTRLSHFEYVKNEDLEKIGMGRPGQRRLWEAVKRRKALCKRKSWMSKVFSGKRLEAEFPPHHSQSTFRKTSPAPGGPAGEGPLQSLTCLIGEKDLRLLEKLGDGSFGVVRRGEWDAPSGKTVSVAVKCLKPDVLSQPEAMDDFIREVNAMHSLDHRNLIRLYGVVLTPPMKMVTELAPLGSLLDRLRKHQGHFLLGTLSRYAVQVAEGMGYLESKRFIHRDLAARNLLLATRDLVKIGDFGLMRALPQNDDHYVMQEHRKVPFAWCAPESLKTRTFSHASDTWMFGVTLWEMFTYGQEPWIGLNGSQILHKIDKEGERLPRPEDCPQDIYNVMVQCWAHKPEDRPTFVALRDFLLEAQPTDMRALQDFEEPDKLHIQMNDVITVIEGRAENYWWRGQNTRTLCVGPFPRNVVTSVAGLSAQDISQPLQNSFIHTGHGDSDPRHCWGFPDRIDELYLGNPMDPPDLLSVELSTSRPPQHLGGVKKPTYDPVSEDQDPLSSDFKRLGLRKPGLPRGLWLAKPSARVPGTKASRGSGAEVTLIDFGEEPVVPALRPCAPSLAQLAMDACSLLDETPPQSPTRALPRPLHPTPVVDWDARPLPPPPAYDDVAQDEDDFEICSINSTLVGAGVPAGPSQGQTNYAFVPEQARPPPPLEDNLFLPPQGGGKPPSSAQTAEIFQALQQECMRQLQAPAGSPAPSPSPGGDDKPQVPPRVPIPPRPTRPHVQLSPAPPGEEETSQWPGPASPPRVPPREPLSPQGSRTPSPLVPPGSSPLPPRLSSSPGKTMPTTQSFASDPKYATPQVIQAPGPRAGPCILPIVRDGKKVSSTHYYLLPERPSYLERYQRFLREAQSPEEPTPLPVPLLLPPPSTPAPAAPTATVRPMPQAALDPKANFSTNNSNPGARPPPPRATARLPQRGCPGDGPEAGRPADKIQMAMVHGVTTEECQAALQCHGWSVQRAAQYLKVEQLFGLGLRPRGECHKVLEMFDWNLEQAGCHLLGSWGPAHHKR
The target in assay [4] is Tyrosine-protein kinase FRK (Homo sapiens) (UniProt P42685). Briefly: Inhibition of FRK (unknown origin) at 1 uM by Ambit Kinomescan binding assay relative to control; values are per cent of control.
Tyrosine-protein kinase FRK (Homo sapiens), sequence (P42685 whole entry): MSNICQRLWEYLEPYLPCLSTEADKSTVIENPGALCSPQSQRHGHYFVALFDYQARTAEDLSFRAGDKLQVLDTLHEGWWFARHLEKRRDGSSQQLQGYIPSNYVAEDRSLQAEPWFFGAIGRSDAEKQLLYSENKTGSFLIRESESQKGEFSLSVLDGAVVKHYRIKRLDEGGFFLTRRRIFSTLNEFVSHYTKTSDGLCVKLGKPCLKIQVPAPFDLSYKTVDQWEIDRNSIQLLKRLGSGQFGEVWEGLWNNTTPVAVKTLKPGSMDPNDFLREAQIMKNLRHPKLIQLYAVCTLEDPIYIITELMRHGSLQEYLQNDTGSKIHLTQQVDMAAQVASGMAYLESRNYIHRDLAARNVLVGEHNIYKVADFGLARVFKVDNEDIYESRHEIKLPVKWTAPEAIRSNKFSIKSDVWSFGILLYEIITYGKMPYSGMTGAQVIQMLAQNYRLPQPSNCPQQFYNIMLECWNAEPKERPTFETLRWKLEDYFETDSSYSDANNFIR
Assay [5] concerns the target Serine/threonine-protein kinase SIK2 (Homo sapiens) (UniProt Q9H0K1). Briefly: Inhibition of SIK2 (unknown origin) at 1 uM by Ambit Kinomescan binding assay relative to control.
Assay [6] has as its target Mitogen-activated protein kinase kinase kinase 12 (Homo sapiens) (UniProt Q12852). Briefly: Inhibition of DLK Lys2 labeling site harbouring in human A-375 cells at 0.05 uM by KiNativ Profiling analysis relative to control.
The target in assay [7] is Phosphatidylinositol 4,5-bisphosphate 3-kinase catalytic subunit alpha isoform (Homo sapiens) (UniProt P42336). Briefly: Inhibition of PIK3CA ATP labeling site in human A-375 cells at 0.5 uM by KiNativ Profiling analysis relative to control. The class given is cell-based.
Phosphatidylinositol 4,5-bisphosphate 3-kinase catalytic subunit alpha isoform (Homo sapiens), sequence (P42336 whole entry, canonical isoform): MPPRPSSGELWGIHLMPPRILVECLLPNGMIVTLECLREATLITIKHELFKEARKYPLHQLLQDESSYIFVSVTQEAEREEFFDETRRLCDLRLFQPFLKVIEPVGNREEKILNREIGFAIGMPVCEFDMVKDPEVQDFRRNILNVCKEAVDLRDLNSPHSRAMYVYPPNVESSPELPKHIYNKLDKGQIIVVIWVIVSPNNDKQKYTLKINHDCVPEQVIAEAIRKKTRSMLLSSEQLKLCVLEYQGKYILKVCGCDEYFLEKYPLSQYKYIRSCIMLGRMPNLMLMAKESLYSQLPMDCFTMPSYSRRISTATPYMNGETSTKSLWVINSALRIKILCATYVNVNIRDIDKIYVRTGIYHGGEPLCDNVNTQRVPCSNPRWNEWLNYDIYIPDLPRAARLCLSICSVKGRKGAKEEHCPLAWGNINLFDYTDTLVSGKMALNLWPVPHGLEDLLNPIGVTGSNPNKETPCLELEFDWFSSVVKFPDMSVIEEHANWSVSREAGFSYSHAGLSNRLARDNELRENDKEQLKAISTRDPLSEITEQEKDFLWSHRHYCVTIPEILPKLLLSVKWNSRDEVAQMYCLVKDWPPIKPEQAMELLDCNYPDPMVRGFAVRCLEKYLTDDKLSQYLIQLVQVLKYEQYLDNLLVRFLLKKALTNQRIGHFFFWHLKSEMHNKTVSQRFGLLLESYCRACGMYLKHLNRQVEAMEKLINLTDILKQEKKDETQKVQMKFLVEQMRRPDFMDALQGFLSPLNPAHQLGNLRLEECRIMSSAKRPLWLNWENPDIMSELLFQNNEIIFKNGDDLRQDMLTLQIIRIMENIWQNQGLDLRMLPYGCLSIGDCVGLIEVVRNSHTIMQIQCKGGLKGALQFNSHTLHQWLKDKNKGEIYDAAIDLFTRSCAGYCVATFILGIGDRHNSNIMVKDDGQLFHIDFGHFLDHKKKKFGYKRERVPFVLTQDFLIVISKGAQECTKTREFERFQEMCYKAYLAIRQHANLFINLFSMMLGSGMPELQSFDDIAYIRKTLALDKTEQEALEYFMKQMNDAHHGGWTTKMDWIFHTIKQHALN
Assay [8] has as its target Tyrosine-protein kinase Fes/Fps (Homo sapiens, UniProt P07332). Description: Inhibition of FES (unknown origin) at 1 uM by Ambit Kinomescan binding assay relative to control; values are per cent of control.
Assay [9] concerns Epidermal growth factor receptor (Homo sapiens), P00533 [UNDEFINED MUTATION]. The note with it: dose 1.0 µM.
The target of assay [10] is Phosphatidylinositol 4,5-bisphosphate 3-kinase catalytic subunit beta isoform (Homo sapiens) (UniProt P42338). Briefly: Inhibition of PIK3CB (unknown origin) at 10 uM by Ambit Kinomescan binding assay.
Assay [11] addresses T1, Mitogen-activated protein kinase kinase kinase 7 (Homo sapiens) (UniProt O43318).
T1 sequence (whole entry): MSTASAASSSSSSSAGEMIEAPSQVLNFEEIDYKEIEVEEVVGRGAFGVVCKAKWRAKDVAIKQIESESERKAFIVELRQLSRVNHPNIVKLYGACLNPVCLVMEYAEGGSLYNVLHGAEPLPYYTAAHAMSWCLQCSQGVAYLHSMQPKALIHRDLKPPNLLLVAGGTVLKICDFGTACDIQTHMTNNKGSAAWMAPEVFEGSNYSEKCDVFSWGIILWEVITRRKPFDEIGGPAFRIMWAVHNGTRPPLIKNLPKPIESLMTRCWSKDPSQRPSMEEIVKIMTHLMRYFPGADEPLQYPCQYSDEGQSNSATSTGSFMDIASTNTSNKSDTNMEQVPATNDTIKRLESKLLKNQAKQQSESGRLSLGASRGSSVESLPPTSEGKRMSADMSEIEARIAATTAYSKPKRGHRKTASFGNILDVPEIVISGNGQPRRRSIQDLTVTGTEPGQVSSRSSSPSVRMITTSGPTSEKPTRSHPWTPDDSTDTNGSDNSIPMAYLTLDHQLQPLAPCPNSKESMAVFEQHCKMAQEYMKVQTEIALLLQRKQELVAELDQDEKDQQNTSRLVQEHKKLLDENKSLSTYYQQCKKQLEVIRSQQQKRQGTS
Description: Inhibition of TAK1 Lys2 labeling site in human A-375 cells at 5 uM by KiNativ Profiling analysis relative to control. The class given is cell-based.

For assay [12], the target named is Ribosomal protein S6 kinase alpha-1 (Homo sapiens) (UniProt Q15418). Briefly: Inhibition of N-terminal RPS6KA1 kinase domain 1 (unknown origin) at 10 uM by Ambit Kinomescan binding assay.
Assay [13] concerns the target cAMP-dependent protein kinase catalytic subunit beta (Homo sapiens) (UniProt P22694). Description: Inhibition of PKAC beta (unknown origin) at 10 uM by Ambit Kinomescan binding assay relative to control.
For assay [14], the target named is Tyrosine-protein kinase Lck (Homo sapiens) (UniProt P06239). Description: Inhibition of LCK (unknown origin) at 10 uM by Ambit Kinomescan binding assay relative to control.
Tyrosine-protein kinase Lck (Homo sapiens), sequence (P06239 2-509 limits assumed): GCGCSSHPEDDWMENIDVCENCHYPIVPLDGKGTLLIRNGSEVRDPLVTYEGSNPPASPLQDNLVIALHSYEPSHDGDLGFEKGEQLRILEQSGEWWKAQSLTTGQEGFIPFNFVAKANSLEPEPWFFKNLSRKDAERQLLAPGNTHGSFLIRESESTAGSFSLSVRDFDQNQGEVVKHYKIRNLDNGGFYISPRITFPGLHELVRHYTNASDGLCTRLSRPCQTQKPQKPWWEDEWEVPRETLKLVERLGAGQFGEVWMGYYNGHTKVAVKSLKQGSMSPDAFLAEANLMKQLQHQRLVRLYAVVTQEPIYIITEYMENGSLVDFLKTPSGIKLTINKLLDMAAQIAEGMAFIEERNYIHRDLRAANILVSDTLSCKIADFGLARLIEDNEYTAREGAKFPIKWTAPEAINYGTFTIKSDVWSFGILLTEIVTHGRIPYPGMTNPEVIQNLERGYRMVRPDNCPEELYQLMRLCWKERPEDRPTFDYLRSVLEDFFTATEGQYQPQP
Assay [15] addresses Myosin-IIIa (Homo sapiens) (UniProt Q8NEV4). Briefly: Inhibition of MYO3A (unknown origin) at 10 uM by Ambit Kinomescan binding assay relative to control.
Assay [16] has as its system Tyrosine-protein kinase ABL1 (Homo sapiens), P00519 [Y253F]. Description: Inhibition of ABL1 Y253F mutant (unknown origin) at 10 uM by Ambit Kinomescan binding assay relative to control.
Assay [17] in a line: Inhibition of TLK1/2 K2 labeling site in human Huh-7 cells at 10 uM by KiNativ Profiling analysis relative to control. The note with it: condition cancer.
The target of assay [18] is T2, Dual specificity mitogen-activated protein kinase kinase 4 (Homo sapiens) (UniProt P45985).
T2 sequence (whole entry): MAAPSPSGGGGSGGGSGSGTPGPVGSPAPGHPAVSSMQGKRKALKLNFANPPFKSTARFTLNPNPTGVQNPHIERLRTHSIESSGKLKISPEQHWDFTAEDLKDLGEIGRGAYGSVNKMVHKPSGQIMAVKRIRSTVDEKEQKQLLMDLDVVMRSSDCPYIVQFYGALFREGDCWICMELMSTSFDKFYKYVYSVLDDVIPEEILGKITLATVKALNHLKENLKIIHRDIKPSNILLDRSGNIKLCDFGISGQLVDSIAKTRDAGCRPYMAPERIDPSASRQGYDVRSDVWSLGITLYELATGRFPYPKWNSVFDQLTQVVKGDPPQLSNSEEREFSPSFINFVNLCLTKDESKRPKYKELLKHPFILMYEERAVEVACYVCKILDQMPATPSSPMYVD
Description: Inhibition of MAP2K4 K2 labeling site harbouring DIKPSNILLDR in human Huh-7 cells at 1 uM by KiNativ Profiling analysis relative to control. The class given is cell-based.

In assay [19] the target is Interleukin-1 receptor-associated kinase 1 (Homo sapiens) (UniProt P51617). Description: Inhibition of IRAK1 Lys2 labeling site in human A-375 cells at 0.5 uM by KiNativ Profiling analysis relative to control. The class given is cell-based.
Assay [20] concerns the target Tyrosine-protein kinase CSK (Homo sapiens, UniProt P41240). Briefly: Inhibition of CSK ACT labeling site harbouring VSDFGLTKEASSTQDTGKLPVK in human Huh-7 cells at 1 uM by KiNativ Profiling analysis relative to control. The class given is cell-based.

Active and inactive are the calls of the source. No cut-off for these calls is given here. A value given as a limit tells only on which side of the number the result lay.

Myosin-IIIa (Homo sapiens), sequence (Q8NEV4 whole entry): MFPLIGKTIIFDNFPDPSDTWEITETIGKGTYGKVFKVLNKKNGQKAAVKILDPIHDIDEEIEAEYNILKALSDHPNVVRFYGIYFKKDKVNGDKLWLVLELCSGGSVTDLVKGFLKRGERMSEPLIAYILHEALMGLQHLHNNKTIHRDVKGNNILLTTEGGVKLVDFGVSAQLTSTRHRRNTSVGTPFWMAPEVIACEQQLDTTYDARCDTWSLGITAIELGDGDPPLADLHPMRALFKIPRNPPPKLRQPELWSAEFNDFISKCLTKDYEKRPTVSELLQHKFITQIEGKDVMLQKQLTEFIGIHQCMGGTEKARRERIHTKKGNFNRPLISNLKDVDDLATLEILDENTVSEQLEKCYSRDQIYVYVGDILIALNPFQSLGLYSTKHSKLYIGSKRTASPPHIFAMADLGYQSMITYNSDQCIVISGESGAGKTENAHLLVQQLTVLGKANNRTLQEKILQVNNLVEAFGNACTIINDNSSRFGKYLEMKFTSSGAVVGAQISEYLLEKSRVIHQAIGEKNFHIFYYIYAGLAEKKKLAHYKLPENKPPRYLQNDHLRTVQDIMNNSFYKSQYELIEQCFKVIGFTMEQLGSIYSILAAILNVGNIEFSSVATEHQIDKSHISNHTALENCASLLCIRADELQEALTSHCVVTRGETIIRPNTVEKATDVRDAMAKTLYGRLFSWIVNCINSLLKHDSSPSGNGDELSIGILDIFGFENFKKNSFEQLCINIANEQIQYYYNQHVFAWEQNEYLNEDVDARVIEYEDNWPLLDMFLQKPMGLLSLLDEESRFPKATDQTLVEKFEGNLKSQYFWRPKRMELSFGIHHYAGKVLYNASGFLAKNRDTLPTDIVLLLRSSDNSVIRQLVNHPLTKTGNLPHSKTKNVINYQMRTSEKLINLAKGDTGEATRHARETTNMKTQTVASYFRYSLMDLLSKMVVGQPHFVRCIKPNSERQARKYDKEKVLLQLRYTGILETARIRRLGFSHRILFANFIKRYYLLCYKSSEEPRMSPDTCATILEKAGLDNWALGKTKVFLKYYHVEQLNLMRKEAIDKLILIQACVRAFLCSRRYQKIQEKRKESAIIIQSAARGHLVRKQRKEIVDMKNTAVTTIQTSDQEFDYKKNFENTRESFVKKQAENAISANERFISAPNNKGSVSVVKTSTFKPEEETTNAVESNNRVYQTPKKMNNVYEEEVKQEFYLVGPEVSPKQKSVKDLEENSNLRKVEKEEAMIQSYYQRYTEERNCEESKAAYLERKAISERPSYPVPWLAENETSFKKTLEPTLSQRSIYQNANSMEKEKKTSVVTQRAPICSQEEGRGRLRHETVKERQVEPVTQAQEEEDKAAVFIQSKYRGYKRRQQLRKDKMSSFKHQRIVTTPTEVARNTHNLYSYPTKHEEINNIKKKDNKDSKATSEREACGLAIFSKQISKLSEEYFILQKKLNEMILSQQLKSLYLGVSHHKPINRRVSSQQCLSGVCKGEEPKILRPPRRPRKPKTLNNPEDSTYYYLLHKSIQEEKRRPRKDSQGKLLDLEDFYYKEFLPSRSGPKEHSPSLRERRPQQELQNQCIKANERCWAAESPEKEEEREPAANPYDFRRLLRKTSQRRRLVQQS

As for `CNc1cc(Oc2cc(C(=O)Nc3cc(N4CCN(C)CC4)cc(C(F)(F)F)c3)ccc2C)ncn1`, the inhibition stood at 4.2% in [1] and 5% in assay [2].
As for `CCN1CCN(Cc2ccc(NC(=O)c3ccc(C)c(/C=C/c4cnc5[nH]ccc5c4OC)c3)cc2C(F)(F)F)CC1`, the inhibition in assay [3] worked out at 35.2%; in [5] it was 26%; in assay [6], 9%; in assay [7], 34.5%; in assay [9] it was 0.5%. The residual activity turned out to be 3.6% in assay [4] and 6.8% in assay [8].
Regarding `CCN1CCN(Cc2ccc(NC(=O)c3ccc(C)c(Oc4ccnc5[nH]ccc45)c3)cc2C(F)(F)F)CC1`, the inhibition result in assay [10] and in assay [12] was “inactive” throughout. The inhibition in [11] was greater than 95%; in assay [13], 14%; in assay [14] it was 0.8%; in assay [15] it was 6.4%; in assay [16] it was 1.1%; in [18] it was -9.3%. The inhibition was found to be 2.5% in assay [19] and 2.4% in assay [20]. The inhibition at 10 µM in [17] is -23.9%.

Usually inhibition stands for the change of the read-out against control, counted positive when it falls. As a reminder, the residual activity is the share of the control activity or signal that is left under treatment.
